We go through 1 molecule from ChEMBL document CHEMBL3352151, “In vitro and in vivo antibacterial evaluation and mechanistic study of ornithine based small cationic lipopeptides against antibiotic resistant clinical isolates” (Eur J Med Chem, 2014).

Values after ≈ are worked out from the molar mass of the structure shown. Active and inactive are the calls of the source. The rule behind the calls is not given here. A value given as a limit tells only on which side of the number the result lay.

Series [1] deals with Staphylococcus epidermidis. Description: Antibacterial activity against clinical isolates of Staphylococcus epidermidis GMCH/B0057 after overnight incubation by microdilution broth assay. The series is classed as functional.
The nature of series [2]: Toxicity in albino mouse assessed as mortality at 75 mg/kg, iv. The series is classed as organism-based. Details: dose 75 mg/kg, route intravenous. Conditions: in vivo.
The subject of series [3] is Enterococcus faecalis. In words: Antibacterial activity against clinical isolates of gentamicin-resistant Enterococcus faecalis GMCH/R-Gen011 after overnight incubation by microdilution broth assay. The class given is functional.
Series [4] relates to Pseudomonas aeruginosa. Description: Antibacterial activity against clinical isolates of Pseudomonas aeruginosa PGI/DML02084 after overnight incubation by microdilution broth assay. The class given is functional. In general terms: In broth dilution the organism is exposed to a series of concentrations in liquid medium.
In series [5] the test system is Klebsiella pneumoniae. Description: Antibacterial activity against clinical isolates of Klebsiella pneumoniae GMCH/B0127 after overnight incubation by microdilution broth assay. The class given is functional.
The subject of series [6] is Acinetobacter baumannii. Description: Antibacterial activity against clinical isolates of Acinetobacter baumannii GMCH/B0083 after overnight incubation by microdilution broth assay. The series is classed as functional.
Series [7] concerns Acinetobacter baumannii. In words: Antibacterial activity against clinical isolates of imipenem-resistant Acinetobacter baumannii GMCH/R-Imi003 after overnight incubation by microdilution broth assay. The series is classed as functional.
Series [8] has as its system Escherichia coli. In words: Antibacterial activity against Escherichia coli PGI/DML02292 infected in Swiss albino mouse assessed as log reduction at 5 mg/kg administered at 1 hr post infection relative to control. The class given is functional.
Series [9] deals with Staphylococcus aureus. In words: Antibacterial activity against Staphylococcus aureus PGI/DML03149 infected in Swiss albino mouse assessed as log reduction at 5 mg/kg administered […] at 1 hr post infection relative to control. The class given is functional.
Series [10] is described as follows: Membrane permeabilization activity assessed as release of calcein from liposomes after 5 mins by fluorescence assay.
Series [11] deals with Escherichia coli. In words: Induction of membrane damage in Escherichia coli PGI/DML02292 at 3 ug/ml after 30 mins by propidium iodide staining-based flow cytometry relative to control. The series is classed as functional. In general terms: In flow cytometry, cells or beads pass a laser one at a time.
In series [12] the test system is Escherichia coli. Description: Induction of membrane damage in Escherichia coli PGI/DML02292 at 6 ug/ml after 30 mins by propidium iodide staining-based flow cytometry relative to control. The series is classed as functional.
The test system of series [13] is Escherichia coli. Description: Bactericidal activity against clinical isolates of Escherichia coli PGI/DML02292 assessed as surface blebs at 4 times MIC after 30 mins by […] microscopy relative to control. The series is classed as functional, organism-based.
Series [14] relates to Escherichia coli. Description: Bactericidal activity against clinical isolates of Escherichia coli PGI/DML02292 assessed as disruption of cell structure at 4 times MIC after 30 mins by transmission electron microscopy relative to control. The class given is functional, organism-based.
Series [15] concerns Plasma. Description: Drug degradation in human plasma at 1 ug/ml after 24 hrs by RP-HPLC analysis. The class given is ADME, cell-free.
For series [16], the system named is Mus musculus. Description: Toxicity in albino mouse assessed as death at 1 to 30 mg/kg, iv measured for 14 days. The series is classed as organism-based. Set-up: dose 1-30 mg/kg, route intravenous. Conditions: in vivo, 336 h.
For series [17], the system named is Mus musculus. In words: Toxicity in albino mouse assessed as mortality latency at 90 mg/kg, iv. The note with it: in vivo. Set-up: dose 90 mg/kg, route intravenous. The class given is organism-based.

For `CCCCCCCCCCCCCC(=O)NC(CCCN)C(=O)NC(CCCN)C(=O)NC(CCCN)C(N)=O` (configuration not stated), the MIC (in general, the least concentration at which growth counts as inhibited) in [1] was 3.5 µg/mL (≈ 6.14 µM); in [3], 4.5 µg/mL (≈ 7.9 µM); in [4], 1.5 µg/mL (≈ 2.63 µM); in series [5], 4 µg/mL (≈ 7.02 µM); in series [6], 2.5 µg/mL (≈ 4.39 µM); in [7], 3.25 µg/mL (≈ 5.7 µM). Besides, in series [2], the mortality (as a rule, the percentage killed) is 40%. The FC in series [8] stood at 3.68; in [9], 3.07. The Activity entry in series [10] is “Dose-dependent effect”; in [11], 14%; in series [12], 54%; in series [16], “Non-toxic”. The result in series [13] and in series [14] was Active. In [15], the Stability result is “Stable”. Moreover, the Time in [17] is over 96 h.
